Results: patent publication US7956065B2, “Pharmaceutical compounds” (Biovail Laboratories International (Barbados) S.R.L., priority 2008, dated 2011)
“Also recorded” adds a separate entry of the source. Where a name gives a salt, the structure may show the parent alone. Read-outs that look alike come from different tables or passages of the source.

How the values were obtained:
[1] = test system: sub-chronic PCP-induced deficits in working memory in female hooded-Lister rats; assay: Novel object recognition (NOR) task after sub-chronic PCP treatment; type: in vivo, rat
Description: One of the symptoms of dementia is the progressive development of a cognitive deficit. Certain pre-clinical tests allow the observation of relatively subtle cognitive deficits in the rat. The cognitive deficits observed are seen in behaviours such as working memory deficits which may be measured by recognition tasks such as the novel object recognition (NOR) paradigm. A recognition memory task allows the comparison between presented stimuli and previously stored information. Ennaceur & Delacour, Behav. Brain Res. 31: 47-59 (1988) described the NOR test in rats which was based on the differential exploration of familiar and new objects. The NOR test is a non-rewarded, ethologically relevant paradigm based on the spontaneous exploratory behaviour of rats which measures working memory. Each session consists of two trials. In the first trial, the rats are exposed to two identical objects in an open field. During the second trial, rats are exposed to two dissimilar objects, one familiar object from the first trial and one new object. Object recognition in rats can be measured as the difference in time spent exploring the familiar and the new object. […] The duration of each trial is also important as a preference for the novel object only lasts during the first 1 or 2 minutes, after which time preference diminishes as both objects become familiar and are explored equally.
The abovementioned rodent model was used to assess the effects of the Isomer A on sub-chronic PCP-induced deficits in working memory using the novel object recognition (NOR) paradigm. The working hypothesis was that both acute and sub-chronic treatment with Isomer A will attenuate the selective working memory deficit induced by sub-chronic PCP as measured in the NOR test paradigm.
Rats are allowed to habituate to the empty test box and the behavioural test room environment for 1 hour on day 1. Prior to behavioural testing on day 2 rats are given a further 3 minutes habituation.
Following the 3 minute habituation period, the rats are given two 3 minute trials (T1 and T2) which are separated by a 1 minute inter-trial interval in the home cage during which the objects are changed.
In this trial, the animals are allowed to explore two identical objects (A1 and A2) for 3 minutes.
In this trial, the animals explore a familiar object (A) from T1 and a novel object (B) for 3 minutes. The familiar object presented during T2 is a duplicate of the object presented in T1 in order to avoid any olfactory trails.
The object exploration is defined by animals licking, sniffing or touching the object with the forepaws whilst sniffing, but not leaning against, turning around, standing or sitting on the object. The exploration time (s) of each object (A1, A2, A and B) in each trial are recorded using two stopwatches and the following factors are calculated: • Total exploration time of both objects in the acquisition trial(s). • Total exploration time of both objects in the retention trial(s). • Habituation of exploratory activity. The LMA includes the exploration time, as measured by the number of lines crossed, for both the trials. • Discrimination index, which is calculated as shown below; (time spent exploring novel object−time spent exploring familiar object)÷total time spent in exploring the objects
Behaviour in all trials was recorded on video for subsequent blind scoring.
50 female hooded-Lister rats (Harlan, UK) were used as subjects for these studies. Rats were housed in groups of 5 under standard laboratory conditions under a 12 hr light:dark cycle, lights on at 0700 hr. All testing was carried out in the light phase. Food and water were freely provided. All experiments were conducted in accordance with the Animals Scientific Procedures Act, U.K. 1986 and were approved by the University of Bradford ethical review panel.
Rats were randomly assigned to two treatment groups and treated with vehicle, n=10 (distilled water, ip) or PCP, n=40 (2 mg/kg, ip) twice daily for 7 days. […]

[2] = test system: PCP-induced cognitive deficit in the retention phase of the NOR task in female rats; settings: cited from earlier work; for cognitive deficit in the retention phase of the NOR task: female rats

## Cc1nc2n(c(=O)c1CCN1CCC(c3noc4cc(F)ccc34)CC1)CCCC2 [risperidone, reference compound]
[1]; risperidone 0.2 mg/kg i.p., 30 min before testing, FIG. 2
  attenuation of sub-chronic PCP-induced deficit in retention trial: attenuate the sub-chronic PCP-induced deficit
[1]; risperidone 0.2 mg/kg i.p., did not reach statistical significance, FIG. 3
  discrimination index (DI) in sub-chronic PCP treated rats: improved

## O=C(CCCN1CCC(O)(c2ccc(Cl)cc2)CC1)c1ccc(F)cc1 [haloperidol]
[2]; haloperidol 0.05-0.075 mg/kg
  improvement of deficit induced by sub-chronic PCP in NOR paradigm: not

## c1ccc(C2(N3CCCCC3)CCCCC2)cc1 [PCP, Phencyclidine hydrochloride]
[1]; PCP 2 mg/kg i.p. twice daily for seven days, did not reach statistical significance, FIG. 3
  discrimination index (DI) after sub-chronic PCP treatment: induced a reduction in the discrimination index
[2]; acute PCP 0.5-2.0 mg/kg ip
  cognitive deficit in the retention phase of the NOR task: produce a selective cognitive deficit
[2]; sub-chronic PCP 2 mg/kg i.p. twice daily for 7 days followed by 7 days drug-free period
  cognitive deficit in the retention phase of the NOR task: produce a selective cognitive deficit

## COc1cc2c(cc1OC)[C@@H]1C[C@@H](O)[C@H](CC(C)C)CN1CC2 (single isomer, unassigned) [Isomer A]
[1]; Isomer A 30 mg/kg p.o.
  sedation (observation of the behaviour of the rats): did not appear sedated
[1]; Isomer A 30 mg/kg p.o. (highest dose), FIG. 2
  improvement of PCP-induced working memory deficit in retention phase of NOR task, statistical significance: significant at the highest dose
[1]; Isomer A 30 mg/kg p.o., compared with vehicle control group, FIG. 4
  locomotor activity in the test arena (number of lines crossed, T1 and T2): significant effect to reduce locomotor activity
[1]; Isomer A 30 mg/kg p.o., did not reach statistical significance, FIG. 3
  discrimination index (DI) in sub-chronic PCP treated rats: improved
[1]; Isomer A 3.0-30 mg/kg p.o., FIG. 1
  exploration of two identical objects in the acquisition phase (T1): no effect
[1]; acute Isomer A 3-30 mg/kg p.o., 30 min before testing, sub-chronic PCP 2 mg/kg i.p. twice daily for 7 days then 7 days washout, FIG. 2
  attenuation of sub-chronic PCP-induced deficit in retention trial (exploration time of familiar vs novel object): has efficacy to attenuate the sub-chronic PCP-induced deficit; also recorded: selective for the retention phase of the NOR task; also recorded: counteracted the effects of sub-chronic administration of phencyclidine hydrochloride (PCP)
